What all share (format): functional, cell-based
For one experiment, the system named is U-937. Nature of the experiment: Antiproliferative activity against human U937 cells after 48 hrs by MTT assay. The conditions noted are these: U-937, 48 h. (Formazan colour is commonly taken as a measure of viable cells.)
The test system of another experiment is PC-3. The experiment is described as follows: Antiproliferative activity against human PC3 cells after 48 hrs by MTT assay. The conditions noted are these: PC-3, 48 h.
The next experiment deals with HepG2. Nature of the experiment: Antiproliferative activity against human HepG2 cells after 48 hrs by MTT assay. The conditions noted are these: HepG2, 48 h.
Another experiment deals with HT-29. The experiment is described as follows: Antiproliferative activity against human HT-29 cells after 48 hrs by MTT assay. The conditions noted are these: HT-29, 48 h.
The test system of the next experiment is A549. Nature of the experiment: Antiproliferative activity against human A549 cells after 48 hrs by MTT assay. To be noted: A549, 48 h.
The test system of a further experiment is HL-60. Nature of the experiment: Antiproliferative activity against human HL60 cells after 48 hrs by MTT assay. The conditions noted are these: HL-60, 48 h.

Broadly, the IC50 is the concentration needed to halve the response being measured. A lower IC50 goes with higher potency. For the compound `C[C@@H]1O[C@@H](O[C@H]2[C@H](O[C@H]3CC[C@]4(C)[C@H]5CC=C6[C@@H]7CC(C)(C)CC[C@]7(C(=O)NCc7cn(-c8ccccc8F)nn7)CC[C@@]6(C)[C@]5(C)CC[C@H]4C3(C)C)OC[C@H](O[C@@H]3O[C@H](CO)[C@@H](O)[C@H](O)[C@H]3O)[C@@H]2O)[C@H](O)[C@H](O)[C@H]1O`, the IC50 worked out at 4.51 µM with U-937; 39.3 µM in the experiment on PC-3; 5.39 µM in the experiment on HepG2; 30.9 µM in the experiment on HT-29; 7.09 µM in the experiment with A549; 5.45 µM in the experiment with HL-60.
With `C[C@@H]1O[C@@H](O[C@H]2[C@H](O[C@H]3CC[C@]4(C)[C@H]5CC=C6[C@@H]7CC(C)(C)CC[C@]7(C(=O)O)CC[C@@]6(C)[C@]5(C)CC[C@H]4C3(C)C)OC[C@H](O[C@@H]3O[C@H](CO)[C@@H](O)[C@H](O)[C@H]3O)[C@@H]2O)[C@H](O)[C@H](O)[C@H]1O` [HEDERACOLCHISIDE A1], the IC50 in the experiment on U-937 was 2.37 µM; with PC-3, 0.85 µM; in the experiment on HepG2, 4.21 µM; with HT-29, 4.77 µM; with A549, 5.41 µM; with HL-60, 3.13 µM.
As for `C[C@@H]1O[C@@H](O[C@H]2[C@H](O[C@H]3CC[C@]4(C)[C@H]5CC=C6[C@@H]7CC(C)(C)CC[C@]7(C(=O)NCc7cn(-c8ccccc8Cl)nn7)CC[C@@]6(C)[C@]5(C)CC[C@H]4C3(C)C)OC[C@H](O[C@@H]3O[C@H](CO)[C@@H](O)[C@H](O)[C@H]3O)[C@@H]2O)[C@H](O)[C@H](O)[C@H]1O`, the IC50 with U-937 amounted to 1.03 µM; in the experiment with PC-3, 5.28 µM; in the experiment with HepG2, 3.92 µM; in the experiment on HT-29, 4.18 µM; in the experiment with A549 it was 1.81 µM; in the experiment on HL-60, 2.26 µM.
With `C[C@@H]1O[C@@H](O[C@H]2[C@H](O[C@H]3CC[C@]4(C)[C@H]5CC=C6[C@@H]7CC(C)(C)CC[C@]7(C(=O)NCc7cn(-c8ccccc8Br)nn7)CC[C@@]6(C)[C@]5(C)CC[C@H]4C3(C)C)OC[C@H](O[C@@H]3O[C@H](CO)[C@@H](O)[C@H](O)[C@H]3O)[C@@H]2O)[C@H](O)[C@H](O)[C@H]1O`, the IC50 was found to be 0.78 µM in the experiment on U-937; 5.29 µM in the experiment on PC-3; 2.95 µM in the experiment with HepG2; 5.11 µM with HT-29; 2.08 µM with A549; 3.11 µM in the experiment on HL-60.
Regarding `C[C@@H]1O[C@@H](O[C@H]2[C@H](O[C@H]3CC[C@]4(C)[C@H]5CC=C6[C@@H]7CC(C)(C)CC[C@]7(C(=O)NCc7cn(-c8ccc(Cl)cc8)nn7)CC[C@@]6(C)[C@]5(C)CC[C@H]4C3(C)C)OC[C@H](O[C@@H]3O[C@H](CO)[C@@H](O)[C@H](O)[C@H]3O)[C@@H]2O)[C@H](O)[C@H](O)[C@H]1O`, the IC50 with U-937 is 0.94 µM; in the experiment on PC-3, 5.64 µM; in the experiment with HepG2, 2.13 µM; in the experiment on HT-29, 41 µM; in the experiment with A549, 1.87 µM; in the experiment with HL-60, 4.52 µM.
Take `CC(=O)c1ccc(-n2cc(CNC(=O)[C@]34CCC(C)(C)C[C@H]3C3=CC[C@@H]5[C@@]6(C)CC[C@H](O[C@@H]7OC[C@H](O[C@@H]8O[C@H](CO)[C@@H](O)[C@H](O)[C@H]8O)[C@H](O)[C@H]7O[C@@H]7O[C@@H](C)[C@H](O)[C@@H](O)[C@H]7O)C(C)(C)[C@@H]6CC[C@@]5(C)[C@]3(C)CC4)nn2)cc1`: the IC50 amounted to 0.78 µM in the experiment on U-937; 46.9 µM in the experiment with PC-3; 33 µM with HepG2; 6.42 µM with HT-29; 0.28 µM in the experiment with A549; 4.66 µM in the experiment on HL-60.
Consider `C[C@@H]1O[C@@H](O[C@H]2[C@H](O[C@H]3CC[C@]4(C)[C@H]5CC=C6[C@@H]7CC(C)(C)CC[C@]7(C(=O)NCc7cn(-c8ccc(F)cc8)nn7)CC[C@@]6(C)[C@]5(C)CC[C@H]4C3(C)C)OC[C@H](O[C@@H]3O[C@H](CO)[C@@H](O)[C@H](O)[C@H]3O)[C@@H]2O)[C@H](O)[C@H](O)[C@H]1O`, for which the IC50 with U-937 came to 0.48 µM; in the experiment with PC-3, 5.78 µM; in the experiment with HepG2 it was 3.18 µM; in the experiment with HT-29 it was 2.32 µM; with A549, 1.02 µM; with HL-60, 1.8 µM.
Turning to `Cc1cccc(-n2cc(CNC(=O)[C@]34CCC(C)(C)C[C@H]3C3=CC[C@@H]5[C@@]6(C)CC[C@H](O[C@@H]7OC[C@H](O[C@@H]8O[C@H](CO)[C@@H](O)[C@H](O)[C@H]8O)[C@H](O)[C@H]7O[C@@H]7O[C@@H](C)[C@H](O)[C@@H](O)[C@H]7O)C(C)(C)[C@@H]6CC[C@@]5(C)[C@]3(C)CC4)nn2)c1`, the IC50 in the experiment with U-937 came to 3.93 µM; with PC-3 it was 3.93 µM; in the experiment on HepG2, 3.49 µM; with HT-29, 4.33 µM; in the experiment on A549 it was 0.18 µM; in the experiment on HL-60, 4.64 µM.
For the compound `C[C@@H]1O[C@@H](O[C@H]2[C@H](O[C@H]3CC[C@]4(C)[C@H]5CC=C6[C@@H]7CC(C)(C)CC[C@]7(C(=O)NCc7cn(-c8ccc(C(F)(F)F)cc8)nn7)CC[C@@]6(C)[C@]5(C)CC[C@H]4C3(C)C)OC[C@H](O[C@@H]3O[C@H](CO)[C@@H](O)[C@H](O)[C@H]3O)[C@@H]2O)[C@H](O)[C@H](O)[C@H]1O`, the IC50 in the experiment on U-937 came out at 0.95 µM; with PC-3, 3.98 µM; in the experiment on HepG2 it was 2.45 µM; in the experiment on HT-29, 4.56 µM; with A549, 4.9 µM; in the experiment on HL-60 it was 5.23 µM.
In the case of `COc1ccccc1-n1cc(CNC(=O)[C@]23CCC(C)(C)C[C@H]2C2=CC[C@@H]4[C@@]5(C)CC[C@H](O[C@@H]6OC[C@H](O[C@@H]7O[C@H](CO)[C@@H](O)[C@H](O)[C@H]7O)[C@H](O)[C@H]6O[C@@H]6O[C@@H](C)[C@H](O)[C@@H](O)[C@H]6O)C(C)(C)[C@@H]5CC[C@@]4(C)[C@]2(C)CC3)nn1`, the IC50 in the experiment on U-937 was determined as 7.73 µM; in the experiment on PC-3, 38 µM; with HepG2 it was 17.7 µM; with HT-29, 44.4 µM; in the experiment with A549, 6.99 µM; with HL-60 it was 12.2 µM.
Turning to `C[C@@H]1O[C@@H](O[C@H]2[C@H](O[C@H]3CC[C@]4(C)[C@H]5CC=C6[C@@H]7CC(C)(C)CC[C@]7(C(=O)NCc7cn(-c8c(Cl)cccc8Cl)nn7)CC[C@@]6(C)[C@]5(C)CC[C@H]4C3(C)C)OC[C@H](O[C@@H]3O[C@H](CO)[C@@H](O)[C@H](O)[C@H]3O)[C@@H]2O)[C@H](O)[C@H](O)[C@H]1O`, the IC50 is 18.4 µM in the experiment with U-937; 41.9 µM in the experiment on PC-3; 23 µM in the experiment on HepG2; 37.8 µM in the experiment on HT-29; 6.68 µM in the experiment with A549; 28.2 µM in the experiment on HL-60.
Turning to `O=c1[nH]cc(F)c(=O)[nH]1` [FLUOROURACIL], the IC50 amounted to 56.3 µM in the experiment on U-937; 8.45 µM in the experiment on PC-3; 59.1 µM with HepG2; 22.2 µM with HT-29; 69.1 µM in the experiment with A549; 54.5 µM with HL-60.

The values are drawn from ChEMBL document CHEMBL4229426, “Synthesis, antitumor activity evaluation and mechanistic study of novel hederacolchiside A1 derivatives bearing an aryl triazole moiety” (Bioorg Med Chem, 2018).
